Literature values, collected in patent US20180353602A1, “COMBINATION OF HDAC INHIBITOR AND ANTI-PD-L1 ANTIBODY FOR TREATMENT OF CANCER” (Syndax Pharmaceuticals, Inc., priority 2015, published 2018).
Read-outs that look alike come from different tables or passages of the source.

Columns and labels:
[1] = in vivo
[2] = system: squamous or non-squamous non small cell lung cancer (NSCLC); conditions: ≤1, 10, 15, and 25 mg/kg every 3 weeks for up to 1 year

Row | half-life [1] | Compound | 24-week progression free survival (PFS) rate ([2]; non-squamous cell NSCLC patients) [%] | 24-week progression free survival (PFS) rate ([2]; squamous cell NSCLC patients) [%]
1 | about 100 hours | Nc1ccccc1NC(=O)c1ccc(CNC(=O)OCc2cccnc2)cc1 [Entinostat, N-(2-aminophenyl)-4-[N-(pyridine-3-yl)methoxycarbonylamino-methyl]-benzamide] |  | 
2 |  | MPDL3280A: human anti-PD-L1 mAb directed against the protein ligand PD-L1, with an engineered Fc domain minimizing ADCC | 46 | 44
